The subject of assay [1] is A549 cells. In words: (Photo)cytotoxicity, MTT assay, A549. The class given is cell-based, human. The settings on record: for PI (phototoxicity index) / IC50: A549; for PI (phototoxicity index): IC50 dark / IC50 light. The procedure: (§1) Cell lines and culture conditions
(§2) A549, A549cisR, MCF-7 and LO2 cells were obtained from Experimental Animal Center of Sun Yat-sen University (Guangzhou, China). Cells were maintained in DMEM (Dulbecco’s modified […]
(§3) medium, which contained 10% FBS (fetal bovine serum, Gibco BRL), 100 ȝg/mL streptomycin (Gibco BRL), and 100 U/mL penicillin (Gibco BRL). The cells were cultured in a humidified […]
(§4) In each experiment, cells treated with vehicle control (1% DMSO) were kept as the reference group.
(§5) The cytotoxicity in the dark and phototoxicity of the tested compounds toward A549, A549cisR, MCF-7 and LO2 cell lines was determined by MTT assay.
(§6) For cytotoxicity in the dark, cells cultured in 96-well plates were grown to confluence. The compounds were dissolved in DMSO (1%, v/v), and diluted with fresh media immediately. the cells were incubated with a series of concentrations of the tested compounds for 44 h at 37 °C. 20 ȝL of MTT solution was then added to each well, and the plates were incubated for an additional 4 h. The media was carefully removed, and DMSO was added (150 µL per well) and incubated for 10 min with shaking. The absorbance at 595 nm was measured using a microplate reader (Infinite M200 Pro, Tecan, Männedorf, Switzerland).
(§7) For phototoxicity, the cells were incubated with the tested compounds for 12 h. The media containing the iridium complexes was removed and fresh media without the complexes was added.
(§8) After another 32 h of incubation, MTT was added. The cytotoxicity was determined as described

In the next assay the test system is MCF-7 cells. Kind of assay: (Photo)cytotoxicity, MTT assay, MCF-7. The class given is cell-based, human. The settings on record: for PI (phototoxicity index): IC50 dark / IC50 light. The procedure: as §1, §2, §3, §4, §5, §6, §7, §8
(Formazan colour is commonly taken as a measure of viable cells.)

The test system of another assay is A549cisR cells. Kind of assay: (Photo)cytotoxicity, MTT assay, A549cisR. The following applies: for PI (phototoxicity index): IC50 dark / IC50 light. The class given is cell-based, human. How it is done: as §1, §2, §3, §4, §5, §6, §7, §8
For another assay, the system named is LO2 cells. In words: (Photo)cytotoxicity, MTT assay, LO2. The class given is cell-based, human. The settings on record: for PI (phototoxicity index): IC50 dark / IC50 light. The procedure: as §1, §2, §3, §4, §5, §6, §7, §8
Assay [2] concerns caspase-3/7 activity in A549 cells. Kind of assay: Caspase-3/7 activity assay (Caspase-Glo). The class given is cell-based, human. The following applies: for increase in caspase-3/7 activity: vs control cells in the dark. How it is done:
(§9) concentrations for 24 h with or without light irradiation. After A549 cells were incubated with 2 for 12 h, the cells were irradiated with a 425 nm LED light array (40 mW cmí2) for 15 min (36 J cmí2).
When necessary, the cells were incubated with NaN3 (10 mM) for 1 h before PDT treatment. The cells were washed twice with PBS gently and fixed with 4% paraformalclehyde for 30 min at room temprature. The cells were washed with PBS twice, and then Hoechst 33342 (5 µg/mL) in PBS was added to the media by gently shaking in the dark for 10 min. The cells were washed with PBS twice and visualized by confocal microscopy (LSM 710, Carl Zeiss, Göttingen, Germany). Emission was collected at 460 ± 20 nm upon excitation at 405 nm.
Caspase-3/7 activity assay
Caspase-3/7 activity was measured using Caspase-Glo® Assay kit (Promega, Madison, WI, USA) according to the manufacturer's instructions. Briefly, cells were cultured in 96-well plates and treated […]
incubated with 2 or cisplatin for 12 h, the cells were irradiated with a 425 nm LED light array (40 mW cmí2) for 15 min (36 J cmí2). 100 µL of Caspase-Glo® 3/7 reagent was added to each well containing 100 µL culture media. The mixture was incubated at room temperature for 1 h and then the luminescence was measured using a microplate reader (Infinite M200 Pro, Tecan, Männedorf, […]
The cells were further treated with 10 ȝM DCF-DA for 20 min at 37 °C in the dark and then then irradiated with a 425 nm LED light array (40 mW cmí2) for 15 min (36 J cmí2). After the treatment, the cells were harvested and washed twice with serum-free RPMI 1640, the fluorescence intensity of DCF in A549 cells was measured by flow cytometry (FACSCaliburTM, Becton Dickinson, Franklin Lakes, NJ, USA). The results were analyzed by FlowJo Software (Tree Star, OR, USA). […]
(§10) concentrations for 12 h and then irradiated with a 425 nm LED light array (40 mW cmí2) for 15 min

In a further assay the test system is A549 and LO2 cells. The following applies: 0.5 μM, light 36 J cm–2, annexin V/propidium iodide staining. How it is done: as §10
Assay [3] concerns A549 cells. The following applies: A549, 0.5 μM with light (36 J cm–2), vs control cells treated with light alone. How it is done:
as §9
When necessary, the cells were incubated with NaN3 (10 mM) for 1 h before PDT treatment. The cells were washed twice with PBS gently and fixed with 4% paraformalclehyde for 30 min at room temprature. The cells were washed with PBS twice, and then Hoechst 33342 (5 µg/mL) in PBS was added to the media by gently shaking in the dark for 10 min. The cells were washed with PBS twice and visualized by confocal microscopy (LSM 710, Carl Zeiss, Göttingen, Germany). Emission was collected at 460 ± 20 nm upon excitation at 405 nm. […]
Caspase-3/7 activity was measured using Caspase-Glo® Assay kit (Promega, Madison, WI, USA) according to the manufacturer's instructions. […]
incubated with 2 or cisplatin for 12 h, the cells were irradiated with a 425 nm LED light array (40 mW cmí2) for 15 min (36 J cmí2). […] The mixture was incubated at room temperature for 1 h and then the luminescence was measured using a microplate reader (Infinite M200 Pro, Tecan, Männedorf, […]
The cells were further treated with 10 ȝM DCF-DA for 20 min at 37 °C in the dark and then then irradiated with a 425 nm LED light array (40 mW cmí2) for 15 min (36 J cmí2). […] The results were analyzed by FlowJo Software (Tree Star, OR, USA). […]

Assay [4] relates to A549 cells. The following applies: A549, 0.5 μM with light (36 J cm–2).
Procedure: Annexin V/propidium iodide double staining assay
The assay was performed according to the manufacturer's (Sigma Aldrich, USA) protocol. A549 cells
a 425 nm LED light array (40 mW cmí2) at different light doses (12, 24 or 36 J cmí2).
necessary, the cells were incubated with NaN3 (10 mM) for 1 h before PDT treatment. For flow
cytometry analysis, the cells were harvested and re-suspended in 500 ȝL annexin-binding buffer (10
mM HEPES, 140 mM NaCl, 2.5 mM CaCl2, pH 7.4). The cell suspension was stained with 5 ȝL
annexin V and 10 ȝL propidium iodide at room temperature for 15 min in the dark, and then
analyzed immediately by flow cytometry (FACSCaliburTM, Becton Dickinson, NJ, USA). The
resulting dot blots were analyzed by FlowJo Software (Tree Star, OR, USA). For confocal
microscopy analysis, the cells were washed twice with PBS, and then incubated with 500 ȝL annexin-binding buffer supplemented with 5 ȝL annexin V and 10 ȝL propidium iodide at room
temperature for 15 min in the dark. The samples were visualized immediately by confocal
microscopy (LSM 710, Carl Zeiss, Göttingen, Germany). Emission was collected at 530 ± 20 nm
(annexin V) and 620 ± 20 nm (propidium iodide) upon excitation at 488 nm.
The mark [5] stands for this setting: dark, incubated 48 h, read-out: IC50 Dark.
Setting [6] is: incubated 12 h then 425 nm LED 15 min (36 J cm–2), read-out: IC50 (light) (converted).
Where [7] appears, read: Homo sapiens, dark, incubated 48 h, read-out: IC50 Dark.
Where [8] appears, read: Homo sapiens, incubated 12 h then 425 nm LED 15 min (36 J cm–2), read-out: IC50 (light) (converted).
Setting [9] is: Homo sapiens, L02, dark, incubated 48 h, read-out: IC50 Dark.
The mark [10] stands for this setting: Homo sapiens, L02, incubated 12 h then 425 nm LED 15 min (36 J cm–2), read-out: IC50 (light) (converted).

Where two headings read alike, the source gives them in different places.

The term IC50 denotes the point on the concentration scale where inhibition reaches its midpoint. Regarding Ir2(ppy)4Cl2 [reference compound], the “PI (phototoxicity index)” value in the assay with A549 cells [1] is on record as 1.7; with MCF-7 cells it was 4.3; in the assay with A549cisR cells, 2.9; in the assay with LO2 cells, 1.3. The IC50 in the assay with A549 cells [1] (setting [5]) is 19.6 ± 2.6 µM; with A549 cells [1] (setting [6]) it was 11.4 µM; in the assay on A549cisR cells (setting [5]) it was 20.2 ± 2.3 µM; with A549cisR cells (setting [6]), 7 µM; with LO2 cells (setting [5]), 28.5 ± 2.4 µM; with LO2 cells (setting [6]), 21.3 µM.

For the compound `c1ccc2c(c1)[nH]c1c(-c3ncc[nH]3)nccc12` [Complex L1, 1-(2-imidazolyl)-β-carboline, reference compound], the “PI (phototoxicity index)” value with A549 cells [1] is reported as above 5.7; with MCF-7 cells, 16.3; in the assay with A549cisR cells it was 2.2; in the assay on LO2 cells, above 2.1. Also, the IC50 in the assay with A549 cells [1] (setting [7]) is above 100 µM; in the assay on A549 cells [1] (setting [8]), 17.6 µM; with A549cisR cells (setting [7]), 42.6 ± 3.8 µM; in the assay on A549cisR cells (setting [8]), 19.7 µM; in the assay with LO2 cells (setting [9]) it was above 100 µM; with LO2 cells (setting [10]) it was 47.4 µM.

Take Ir2(dfppy)4Cl2 [reference compound]: the “PI (phototoxicity index)” value is 1.2 with A549 cells [1], 5.2 with MCF-7 cells, 1.0 in the assay with A549cisR cells and 1.4 with LO2 cells. The concentration for half-maximal inhibition (IC50) is 11.5 ± 1.5 µM with A549 cells [1] (setting [5]); 9.3 µM with A549 cells [1] (setting [6]); 4.3 ± 0.5 µM in the assay with A549cisR cells (setting [5]); 4.2 µM in the assay with A549cisR cells (setting [6]); 29.6 ± 3.1 µM with LO2 cells (setting [5]); 21.5 µM in the assay with LO2 cells (setting [6]).

On to “[Ir(N^C)2(N^N)](PF6) in which N^C = 2-phenylpyridine and N^N = 1-(2-benzimidazolyl)-β-carboline [Complex 2]”, for which the “PI (phototoxicity index)” value in the assay on A549 cells [1] was above 833; with MCF-7 cells, above 769; in the assay with A549cisR cells, above 625. Further, the IC50 in the assay with A549 cells [1] (setting [5]) was at least 100 µM; in the assay on A549 cells [1] (setting [6]), 0.12 µM; with MCF-7 cells (incubated 12 h then 425 nm LED 15 min (36 J cm-2), read-out: IC50 Light) it was 0.13 ± 0.02 µM; in the assay with A549cisR cells (setting [5]) it was above 100 µM; in the assay on A549cisR cells (setting [6]), 0.16 µM; in the assay with LO2 cells (setting [5]) it was above 100 µM. The IC50 in the assay with LO2 cells (setting [6]) was 4.4 µM. Also, in the assay on A549 cells [1] (light IC50 A549 vs LO2), the “fold higher phototoxicity against A549 cells than against LO2 cells” value is “over 36 fold”. The “increase in caspase-3/7 activity” value in assay [2] (A549, 0.5 μM and light (36 J cm–2)) was “approximately 5.7 fold”; in assay [2] (A549, compound alone (dark)), “negligible increase”. Besides, in the assay on A549 and LO2 cells, the “selectivity of PDT in A549/LO2 co-culture” value is “high selectivity towards cancer over normal cells”. In addition, the “increase in the mean fluorescence intensity of DCF” value with A549 cells [3] was “ca. 17 fold”. In addition, the “percentage of apoptotic cells” value in the assay on A549 cells [4] is 69.7%.

Consider `c1ccc2[nH]c(-c3nccc4c3[nH]c3ccccc34)nc2c1` [Complex L2, 1-(2-benzimidazolyl)-β-carboline], for which the IC50 in the assay on A549 cells [1] (setting [7]), with A549 cells [1] (setting [8]), in the assay on A549cisR cells (setting [7]), in the assay on A549cisR cells (setting [8]), in the assay on LO2 cells (setting [9]) and with LO2 cells (setting [10]) was above 100 µM in each case.

Take `N.N.[Cl][Pt][Cl]` [Cisplatin, reference compound]: the “PI (phototoxicity index)” value is on record as 1.0 in the assay on A549 cells [1], 1.1 with MCF-7 cells, 1.0 in the assay on A549cisR cells and 1.0 with LO2 cells. In addition, the half-inhibitory concentration (IC50) is 23.3 ± 2.6 µM in the assay on A549 cells [1] (setting [5]); 22.6 µM with A549 cells [1] (setting [6]); 85.5 ± 5.3 µM in the assay on A549cisR cells (setting [5]); 86.1 µM in the assay with A549cisR cells (setting [6]); 31.2 ± 2.7 µM in the assay on LO2 cells (setting [5]); 30.5 µM in the assay with LO2 cells (setting [6]). For the same compound, the “effect of light irradiation on caspase-3/7 activation” value in assay [2] (A549, 425 nm light (36 J cm–2)) is given as “no effect”.

(Values after article PMC5947539, “Cyclometalated iridium(III) complexes as lysosome-targeted photodynamic anticancer and real-time tracking agents” (Chemical Science, 2015).)
